# Laboratory results: patent US7358359B2, “Antibacterial agents” (University of Washington, priority 2003, dated 2008)
# Read-outs that look alike come from different tables or passages of the source.
# How the values were obtained:
# Type in all cases: cell-based
# [1] = tested on: Pseudomonas aeruginosa cystic fibrosis isolate 3198; experiment: MIC vs cystic fibrosis isolate of P. aeruginosa 3198 (sensitive to most antibacterials); details: strain 3198, Sensitive, comparator antibacterials
# Protocol: (§1) Bacterial isolates were cultivated from −70° C. frozen stocks by two consecutive overnight passages at 35° C. in ambient air on 5% blood agar (Remel, Lenexa, Kans.). Clinical isolates tested were from a collection composed of isolates collected during clinical trials and recent clinical isolates obtained from various geographically diverse hospitals in the US. Quality control and primary panel strains were from the American Type Culture Collection (ATCC; Rockville, Md.), with the exception of P. aeruginosa PAO200, a strain with a deletion of the mexABoprM genes that was received from Dr. H. Schweizer.
# (§2) Minimum Inhibitory Concentrations (MICs) were determined by the broth microdilution method in accordance with the National Committee for Clinical Laboratory Standards (NCCLS) guidelines. In brief, organism suspensions were are adjusted to a 0.5 McFarland standard to yield a final inoculum between 3×10^5 and 7×10^5 colony-forming units (CFU)/mL. Drug dilutions and inocula were made in sterile, cation adjusted Mueller-Hinton Broth (Remel). An inoculum volume of 100 μl was added to wells containing 100 μl of broth with 2-fold serial dilutions of drug. All inoculated microdilution trays were incubated in ambient air at 35° C. for 18-24 hours. Following incubation, the lowest concentration of the drug that prevented visible growth was recorded as the MIC.
# [2] = tested on: Pseudomonas aeruginosa cystic fibrosis isolate 3236; experiment: MIC vs cystic fibrosis isolate of P. aeruginosa 3236 (sensitive to most antibacterials); details: strain 3236, Sensitive, comparator antibacterials
# Protocol: as §1, §2
# [3] = tested on: Pseudomonas aeruginosa cystic fibrosis isolate 2196; experiment: MIC vs cystic fibrosis isolate of P. aeruginosa 2196 (resistant to ciprofloxacin); details: strain 2196, Cipro R, comparator antibacterials
# Protocol: as §1, §2
# [4] = tested on: Pseudomonas aeruginosa cystic fibrosis isolate 3224; experiment: MIC vs cystic fibrosis isolate of P. aeruginosa 3224; details: strain 3224, Tobra R, comparator antibacterials
# Protocol: as §1, §2
# [5] = tested on: Pseudomonas aeruginosa cystic fibrosis isolate 3317; experiment: MIC vs cystic fibrosis isolate of P. aeruginosa 3317 (resistant to aztreonam); details: strain 3317, Aztr. R, comparator antibacterials
# Protocol: as §1, §2
# [6] = tested on: Pseudomonas aeruginosa cystic fibrosis isolate 1145; experiment: microbe, parasite or virus in culture; details: strain 1145, MDR, comparator antibacterials, read-out: MIC
# Protocol: as §1, §2
# [7] = tested on: Pseudomonas aeruginosa cystic fibrosis isolate 3206; experiment: microbe, parasite or virus in culture; details: strain 3206, MDR, comparator antibacterials, read-out: MIC
# Protocol: as §1, §2
# [8] = tested on: non-CF clinical isolates of P. aeruginosa; experiment: MIC vs non-CF clinical isolates of P. aeruginosa; details: Pseudomonas aeruginosa, comparator antibacterials
# Protocol: as §1, with “Schweizer. […] Strain Z61 (ATCC 35151) is also hypersusceptible to antibacterials. It is thought that the hypersusceptibility of this strain is the result of increased permeability of its outer membrane (Angus B L et al, Antimicrobial Agents and Chemotherapy 1982 21,299-309: Outer membrane permeability in Pseudomonas aeruginosa: Comparison of a wild-type with an antibacterial-supersusceptible mutant).” for “Schweizer.”
# as §2, with “MIC. Performance of the assay was monitored by the use of laboratory quality-control strains against tobramycin, that has a defined MIC spectrum, in accordance with NCCLS guidelines.” for “MIC.”
# [9] = tested on: Acinetobacter calcoaceticus; experiment: MIC vs non-fermenting organisms: Acinetobacter calcoaceticus; details: Acinet. calc., comparator antibacterials
# Protocol: as §1, §2
# Alcaligenes xylosoxidans = experiment: MIC vs non-fermenting organisms: Alcaligenes xylosoxidans; details: Achromobacter xylosoxidans; Alcal. xyl; comparator antibacterials
# Protocol: as §1, §2
# Burkholderia cepacia = experiment: MIC vs non-fermenting organisms: Burkholderia cepacia; details: B. cepacia, comparator antibacterials
# Protocol: as §1, §2
# [10] = tested on: Stenotrophomonas maltophilia; experiment: MIC vs non-fermenting organisms: Stenotrophomonas maltophilia; details: S. malt., comparator antibacterials
# Protocol: as §1, §2
# Enterobacter cloacae = experiment: MIC vs enteric organisms: Enterobacter cloacae; details: E. clo., comparator antibacterials
# Protocol: as §1, §2
# Escherichia coli = experiment: MIC vs enteric organisms: Escherichia coli clinical isolates
# Protocol: as §1, §2
# Klebsiella pneumoniae = experiment: MIC vs enteric organisms: Klebsiella pneumoniae; details: K. pneu., comparator antibacterials
# Protocol: as §1, §2
# Klebsiella oxytoca = experiment: MIC vs enteric organisms: Klebsiella oxytoca; details: K. oxy., comparator antibacterials
# Protocol: as §1, §2
# Proteus mirabilis = experiment: MIC vs enteric organisms: Proteus mirabilis; details: P. mir., comparator antibacterials
# Protocol: as §1, §2
# Serratia marcescens = experiment: MIC vs enteric organisms: Serratia marcescens; details: S. marc., comparator antibacterials
# Protocol: as §1, §2
# [11] = tested on: Pseudomonas aeruginosa cystic fibrosis isolate 3232; experiment: MIC vs cystic fibrosis isolate of P. aeruginosa 3232 (Ceftaz. R); details: strain 3232, Ceftaz. R, comparator antibacterials
# Enterobacter aerogenes = experiment: MIC vs enteric organisms: Enterobacter aerogenes; details: Klebsiella aerogenes; E. aer.; comparator antibacterials
# Protocol: as §1, §2
# [12] = Burkholderia cepacia, read-out: MIC
# [13] = Escherichia coli, E. coli 2788, comparator antibacterials, read-out: MIC
Structure (SMILES),MIC [1] [µg/mL],MIC [2] [µg/mL],MIC [3] [µg/mL],MIC [4] [µg/mL],MIC [5] [µg/mL],MIC [6] [µg/mL],MIC [7] [µg/mL],MIC ([8]; P. aer 12307) [µg/mL],MIC ([8]; P. aer psa-6b) [µg/mL],MIC [9] [µg/mL],MIC (Alcaligenes xylosoxidans) [µg/mL],MIC (Burkholderia cepacia; [12]) [µg/mL],MIC (Enterobacter cloacae) [µg/mL],MIC (Escherichia coli; [13]) [µg/mL],MIC (Klebsiella pneumoniae) [µg/mL],MIC (Klebsiella oxytoca) [µg/mL],MIC (Proteus mirabilis) [µg/mL],MIC (Serratia marcescens) [µg/mL],MIC [11] [µg/mL],MIC (Burkholderia cepacia) [µg/mL],other results
"C[C@H]1[C@H](NC(=O)/C(=N\OC(C)(C)C(=O)O)c2csc(N)n2)C(=O)N1S(=O)(=O)O [Aztreonam, aztreonam, reference compound]",1,0.5,1,1,64,> 128,> 128,16,32,32,32,64,≤ 0.13,≤ 0.13,2,0.5,≤ 0.13,≤ 0.13,1,,"MIC [10]: 16 µg/mL; MIC (Escherichia coli; E. coli 1619, comparator antibacterials): 64 µg/mL; MIC (Escherichia coli; Escherichia coli, E. coli 1619, comparator antibacterials, read-out: MIC): 128 µg/mL"
"CO/N=C(\C(=O)N[C@@H]1C(=O)N2C(C(=O)[O-])=C(C[N+]3(C)CCCC3)CS[C@H]12)c1csc(N)n1 [Cefepime, cefepime, reference compound]",4,2,2,8,8,> 128,32,2,8,8,8,32,≤ 0.13,≤ 0.13,8,≤ 0.13,≤ 0.13,≤ 0.13,2,16,
"CC(C)(O/N=C(\C(=O)N[C@@H]1C(=O)N2C(C(=O)[O-])=C(C[n+]3ccccc3)CS[C@H]12)c1csc(N)n1)C(=O)O [Ceftazidime, ceftazidime, reference compound]",2,0.25,2,2,4,> 128,> 128,4,64,16,1,8,0.25,0.25,8,0.25,≤ 0.13,0.25,64,4,"MIC ([10]; Stenotrophomonas maltophilia, read-out: MIC): 1 µg/mL; MIC (Enterobacter aerogenes): 32 µg/mL; MIC (Escherichia coli; Escherichia coli): > 128 µg/mL"
